Laboratory results as given in patent US20200031820A1, “3-CARBOXYLIC ACID PYRROLES AS NRF2 REGULATORS” (GLSXOSMITHKLINE INTELLECTUAL PROPERTY DEVELOPMENT LIMITED, priority 2016, published 2020).

Target: T1, Keap1 (321-609) Kelch domain / TAMRA-labeled 16mer NRF2 peptide (ETGE motif) (Homo sapiens, UniProt Q14145)
T1 construct: the Kelch domain (321-609) of Keap1 is used
Assay: NRF2-Keap1 FP Assay
Format: binding
Settings: 20 nM Keap1 (321-609), 8 nM Tamra labeled peptide
Description: One model for the NRF2-Keap1 interaction is through two binding sites in the Neh2 domain on NRF2. The two sites are referred to as the DLG binding motif (latch domain, uM affinity) and the ETGE binding motif (hinge domain, nM affinity). The Keap1 protein consists of an N-terminal region (NTR), a broad complex, tramtrack, and brick a'brac domain (BTB), an intervening region (IVR), a double glycine repeat domain (DGR or Kelch), and a C-terminal region. The DLG and ETGE motifs of NRF2's Neh2 domain bind to the Kelch domain of Keap1 at different affinities. In the Keap1 Kelch fluorescence polarization (FP) assay, a TAMRA-labeled 16mer peptide (AFFAQLQLDEETGEFL) containing the ETGE motif of NRF2 and the Kelch domain (321-609) of Keap1 is used. The assay determines if a compound interferes with the binding between Keap1 […] and the TAMRA-labeled peptide. Binding of TAMRA-labeled NRF2 peptide to Keap1 (321-609) results in a high FP signal. If a compound interferes with the binding between the peptide and the protein, it will cause the assay signal to decrease. Thus, assay signal is inversely proportional to binding inhibition.
100 nl of 100× compound dose response curves (serial 3-fold dilutions) in DMSO were stamped using an Echo liquid handling system (Labcyte) into 384-well low volume black assay plates (Greiner, #784076), with DMSO in columns 6 and 18. The top concentration of compound was located in columns 1 and 13. Keap1 (321-609) was diluted to 40 nM (2×) in 1× assay buffer (50 mM Tris, pH 8.0, 100 mM NaCl, 5 mM MgCl2, 1 mM DTT, 2 mM CHAPS, and 0.005% BSA) and 5 ul was added using a Multidrop Combi (Thermo Electron Corporation) equipped with a metal tip dispenser to all wells of the compound plate, except column 18. Column 18 received only 5 ul of assay buffer. Immediately, 5 uL of 16 nM (2×) of Tamra labeled peptide (AFFAQLQLDEETGEFL, 21st Century Biochemicals) was added to all wells of the plate. The plates were spun at 500 rpm for 1 min, incubated for 1 hr at room temperature, and read on an Analyst GT (Molecular Devices) equipped with excitation (530/25 nm) and emission (580/10 nm) filters designed for Tamra probes. A 561 nm dichroic mirror was also used in the Analyst. The final assay concentrations of Keap1 (321-609) and Tamra labeled peptide were 20 nM and 8 nM, respectively. Fluorescence measurements, represented as mP, were used in the transformation of the data. Compound activity was calculated based on percent inhibition, normalized against controls in the assay (Control 1 contains the Tamra peptide and Keap1 (321-609) together (0% response) and control 2 contains the Tamra peptide alone (100% response)). Data analysis was handled using the software package Abase XE (Surrey, United Kingdom. The % inhibition values were calculated by the equation:
100−(100*((compound response−average control 2)/(average control 1−average control2))). For calculation of pIC50s, Abase XE uses a four parameter equation.
IC50s<1 nM (+++++), IC50s 1 nM-10 nM (++++), IC50s 10-100 nM (+++), IC50s 100 nM-1 μM (++), IC50s 1-10 μM (+), IC50s >10 μM (−), or were not determined (ND).

T1 sequence (Q14145 321-609): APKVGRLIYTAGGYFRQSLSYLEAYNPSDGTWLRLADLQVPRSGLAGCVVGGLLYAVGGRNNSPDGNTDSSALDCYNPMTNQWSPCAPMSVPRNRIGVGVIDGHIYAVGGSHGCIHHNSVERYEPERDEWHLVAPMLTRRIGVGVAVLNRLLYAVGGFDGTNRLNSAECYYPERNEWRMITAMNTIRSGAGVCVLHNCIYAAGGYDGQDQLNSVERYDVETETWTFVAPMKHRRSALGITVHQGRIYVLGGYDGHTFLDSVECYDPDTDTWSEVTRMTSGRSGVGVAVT

Row | EC50 [nM] | SMILES
1 | 1000 to 10000 | C[C@H]1Cc2ccc(C(F)(F)F)cc2S(=O)(=O)N(C2CCc3c2cccc3-n2ccc(C(=O)O)c2C2CC2)C1 (mixture of isomers) [Example 12, 2-Cyclopropyl-1-(1-((S)-4-methyl-1,1-dioxido-8-(trifluoromethyl)-4,5-dihydrobenzo[f][1,2]thiazepin-2(3H)-yl)-2,3-dihydro-1H-inden-4-yl)-1H-pyrrole-3-carboxylic acid]
2 | 10 to 100 | C[C@H]1Cc2ccc(C(F)(F)F)cc2S(=O)(=O)N(Cc2cccc(-n3ccc(C(=O)O)c3[C@@H]3C[C@H]3c3cn(C)nn3)c2)C1 (racemic) [Example 1, 1-(3-(((S)-4-Methyl-1,1-dioxido-8-(trifluoromethyl)-4,5-dihydrobenzo[f]-[1,2]thiazepin-2(3H)-yl)methyl)phenyl)-2-(trans-2-(1-methyl-1H-1,2,3-triazol-4-yl)cyclopropyl)-1H-pyrrole-3-carboxylic acid]
3 | 10 to 100 | C[C@H]1Cc2cc(C(F)(F)F)ccc2S(=O)(=O)N(Cc2cccc(-n3ccc(C(=O)O)c3[C@@H]3C[C@H]3c3cn(C)nn3)c2)C1 (racemic) [Example 2, 1-(3-(((S)-4-methyl-1,1-dioxido-7-(trifluoromethyl)-4,5-dihydrobenzo[f][1,2]thiazepin-2(3H)-yl)methyl)phenyl)-2-(trans-2-(1-methyl-1H-1,2,3-triazol-4-yl)cyclopropyl)-1H-pyrrole-3-carboxylic acid]
4 | 100 to 1000 | Cc1c(CN2C[C@@H](C)Cc3ccc(C(F)(F)F)cc3S2(=O)=O)cccc1-n1ccc(C(=O)O)c1[C@@H]1C[C@H]1c1cn(C)nn1 (racemic) [Example 10, rac-2-(trans-2-(1-methyl-1H-1,2,3-triazol-4-yl)cyclopropyl)-1-(2-methyl-3-(((S)-4-methyl-1,1-dioxido-8-(trifluoromethyl)-4,5-dihydrobenzo[f][1,2]thiazepin-2(3H)-yl)methyl)phenyl)-1H-pyrrole-3-carboxylic acid]
5 | 100 to 1000 | Cc1ccc(CN2C[C@@H](C)Cc3ccc(C(F)(F)F)cc3S2(=O)=O)cc1-n1ccc(C(=O)O)c1[C@@H]1C[C@H]1c1cn(C)nn1 (racemic) [Example 11, rac-2-(trans-2-(1-methyl-1H-1,2,3-triazol-4-yl)cyclopropyl)-1-(2-methyl-5-(((S)-4-methyl-1,1-dioxido-8-(trifluoromethyl)-4,5-dihydrobenzo[f][1,2]thiazepin-2(3H)-yl)methyl)phenyl)-1H-pyrrole-3-carboxylic acid]
6 | 10 to 100 | C[C@H](Oc1cccc(-c2cccc(-n3ccc(C(=O)O)c3[C@@H]3C[C@H]3c3cn(C)nn3)c2)c1)C1CCCCC1 (racemic) [Example 13, 1-(3′-((S)-1-Cyclohexylethoxy)-[1,1′-biphenyl]-3-yl)-2-(trans-2-(1-methyl-1H-1,2,3-triazol-4-yl)cyclopropyl)-1H-pyrrole-3-carboxylic acid]
7 | 10 to 100 | CCC[C@@H]1CCCCN1C(=O)c1cccc(-c2cccc(-n3ccc(C(=O)O)c3[C@@H]3C[C@H]3c3cn(C)nn3)c2)c1 (racemic) [Example 14, 2-(trans-2-(1-methyl-1H-1,2,3-triazol-4-yl)cyclopropyl)-1-(3′-((R)-2-propylpiperidine-1-carbonyl)-[1,1′-biphenyl]-3-yl)-1H-pyrrole-3-carboxylic acid]
8 | 10 to 100 | CCC[C@@H]1CCCCN1C(=O)c1cccc(-c2cccc(-n3ccc(C(=O)O)c3[C@@H]3C[C@H]3c3cn(C)nn3)c2)c1F (racemic) [Example 15, 1-(2′-fluoro-3′-((R)-2-propylpiperidine-1-carbonyl)-[1,1′-biphenyl]-3-yl)-2-(trans-2-(1-methyl-1H-1,2,3-triazol-4-yl)cyclopropyl)-1H-pyrrole-3-carboxylic acid]
9 | 10 to 100 | Cn1cc([C@@H]2C[C@H]2c2c(C(=O)O)ccn2-c2cccc(CN3Cc4cc(F)ccc4OC(C)(C)C3)c2)nn1 (racemic) [Example 19]
10 | 10 to 100 | Cn1cc([C@@H]2C[C@H]2c2c(C(=O)O)ccn2-c2cccc(CN3Cc4cc(Br)ccc4OC(C)(C)C3)c2)nn1 (racemic) [Example 20]
11 | 10 to 100 | Cn1cc([C@@H]2C[C@H]2c2c(C(=O)O)ccn2-c2cccc(CN3Cc4ccccc4CC(C)(C)C3)c2)nn1 (racemic) [Example 21]
12 | 10 to 100 | CCCC[C@H]1Cc2ccccc2S(=O)(=O)N(Cc2cccc(-n3ccc(C(=O)O)c3[C@@H]3C[C@H]3c3cn(C)nn3)c2)C1 [Example 3, 1-(3-(((S)-4-butyl-1,1-dioxido-4,5-dihydrobenzo[f][1,2]thiazepin-2(3H)-yl)methyl)phenyl)-2-((1R,2R)-2-(1-methyl-1H-1,2,3-triazol-4-yl)cyclopropyl)-1H-pyrrole-3-carboxylic acid]
13 | 10 to 100 | CCCC[C@H]1Cc2ccc(C(F)(F)F)cc2S(=O)(=O)N(Cc2cccc(-n3ccc(C(=O)O)c3[C@@H]3C[C@H]3c3cn(C)nn3)c2)C1 [Example 6, 1-(3-(((S)-4-butyl-1,1-dioxido-8-(trifluoromethyl)-4,5-dihydrobenzo[f][1,2]thiazepin-2(3H)-yl)methyl)phenyl)-2-((1R,2R)-2-(1-methyl-1H-1,2,3-triazol-4-yl)cyclopropyl)-1H-pyrrole-3-carboxylic acid]
14 | 10 to 100 | CC[C@H]1Cc2cc(C(F)(F)F)ccc2S(=O)(=O)N(Cc2cccc(-n3ccc(C(=O)O)c3[C@@H]3C[C@H]3c3cn(C)nn3)c2)C1 [Example 7, 1-(3-(((S)-4-ethyl-1,1-dioxido-7-(trifluoromethyl)-4,5-dihydrobenzo[f][1,2]thiazepin-2(3H)-yl)methyl)phenyl)-2-((1R,2R)-2-(1-methyl-1H-1,2,3-triazol-4-yl)cyclopropyl)-1H-pyrrole-3-carboxylic acid]
15 | 10 to 100 | C[C@H]1Cc2ccc(Br)cc2S(=O)(=O)N(Cc2cccc(-n3ccc(C(=O)O)c3[C@@H]3C[C@H]3c3cn(C)nn3)c2)C1 [Example 8, 1-(3-(((S)-8-bromo-4-methyl-1,1-dioxido-4,5-dihydrobenzo[f][1,2]thiazepin-2(3H)-yl)methyl)phenyl)-2-((1R,2R)-2-(1-methyl-1H-1,2,3-triazol-4-yl)cyclopropyl)-1H-pyrrole-3-carboxylic acid]
16 | 10 to 100 | CC[C@H]1Cc2ccc(Br)cc2S(=O)(=O)N(Cc2cccc(-n3ccc(C(=O)O)c3[C@@H]3C[C@H]3c3cn(C)nn3)c2)C1 [Example 9, 1-(3-(((S)-8-bromo-4-ethyl-1,1-dioxido-4,5-dihydrobenzo[f][1,2]thiazepin-2(3H)-yl)methyl)phenyl)-2-((1R,2R)-2-(1-methyl-1H-1,2,3-triazol-4-yl)cyclopropyl)-1H-pyrrole-3-carboxylic acid]
17 | 10 to 100 | C[C@H](Oc1cccc(-c2cccc(-n3ccc(C(=O)O)c3[C@H]3C[C@@H]3c3cn(C)nn3)c2)c1)C1CCCCC1 [Example 17, 1-(3′-((S)-1-cyclohexylethoxy)-[1,1′-biphenyl]-3-yl)-2-((1S,2S)-2-(1-methyl-1H-1,2,3-triazol-4-yl)cyclopropyl)-1H-pyrrole-3-carboxylic acid]
18 | 10 to 100 | CCC[C@@H]1CCCCN1C(=O)c1cccc(-c2cccc(-n3ccc(C(=O)O)c3[C@@H]3C[C@H]3c3cn(C)nn3)c2)c1Br [Example 22]
19 | 10 to 100 | CCC[C@@H]1CCCCN1C(=O)c1cc(F)cc(-c2cccc(-n3ccc(C(=O)O)c3[C@@H]3C[C@H]3c3cn(C)nn3)c2)c1 [Example 23]
20 | 100 to 1000 | CCC[C@@H]1CCCCN1C(=O)c1cccc(-c2cccc(-n3ccc(C(=O)O)c3[C@@H]3C[C@H]3c3cn(C)nn3)c2)c1C(F)(F)F [Example 24]
